Test results from PMC7259638, “Characterization of the intestinal absorption of morroniside from Cornus officinalis Sieb. et Zucc via a Caco-2 cell monolayer model” (PLoS ONE, 2020).
Where two headings read alike, the source gives them in different places.

Columns and labels:
Format in all cases: in vitro ADME, human
[1] = system: Caco-2 cell monolayers; test: Effects of influx/efflux transporter inhibitors and CO on morroniside transport in Caco-2 cell monolayers; details: for PappAB (mean): AP to BL; for PappBA (mean): BL to AP; for PappAB / PappBA: pH 7.4, 37 °C
Description: (§1) An initial stock solution of morroniside in methanol was prepared. The stock solution was then diluted with HBSS (pH = 7.4) and the final concentration of methanol in HBSS remained at 0.5%. […] Caco-2 cells were seeded at a density of 5 × 10^4 cells/cm^2 in a 12-well plate. The transepithelial electrical resistance (TEER) value was measured with a Millipore ERS voltameter (Burlington, MA, USA) in order to evaluate and determine monolayer integrity. The monolayers were ready for experiments 19 to 22 days after seeding.
(§2) During incubation, the culture medium was refreshed every other day. The culture medium was discarded, and 500 μL of HBSS was added to each well and incubated for 20 min at 37 °C. Afterward, each well was rinsed two times with HBSS at 37 °C. Three concentrations of morroniside (5, 25 and 100 μM) were added to either the apical (AP, 0.5 mL) or basolateral side (BL, 1.5 mL), wheras the receiving chamber contained the corresponding volume of blank HBSS medium (pH = 7.4). Incubation was performed at 37 °C for 180 min, with shaking at 50 rpm. To assess drug transport from the AP to BL side, after incubation for 5, 15, 30, 45, 60, 90, 120 or 180 min, 50 μL of the solution from the BL or AP side was collected, and replaced with an equal volume of HBSS. To study the effect of pH on morroniside (5, 25 and 100 μM) transport, the experiments were performed in HBSS, which was adjusted to pH 6.0 or pH 7.4 on the AP side depending on the experiment, and to pH 7.4 on the BL side at 37 °C.
(§3) Efflux and influx transporters were investigated for their effects on the transport flux of morroniside. Several ATP-binding cassette transporter inhibitors, including one p-glycoprotein (P-gp) inhibitor (100μM verapamil); one multidrug resistance- related protein (MRP) inhibitor (100 μM, MK571), one multidrug resistance- related protein 3 (MRP3, the main BL MRP) inhibitor ([…]) and one multidrug resistance- related protein 2 (MRP2, the main AP MRP) inhibitor (200μM indomethacin); and one breast cancer resistance protein (BCRP) inhibitor (25μM apigenin) were used to determine the transporters involved in the efflux transport of morroniside. The inhibition of the influx transport of morroniside transport across the Caco-2 cell monolayer was investigated by the addition of 50 μM sodium vanadate and cimetidine to evaluate the selectivity of Na/K-ATPase. The pH and temperature conditions of this assay were 7.4 and 37 °C, respectively.
(§4) UPLC-MS/MS data acquisition was performed using Analyst 1.5.2 and MultiQuant 2.1.1 software (Applied Biosystems). All data are shown as the mean ± standard deviation, n = 3. The data were analyzed using SPSS 20.0. In the Caco-2 cell model, the rate of transport was obtained from the amount transported versus the time curve using linear regression. The permeability coefficient of each compound was calculated using the following equation: Papp = (dQ/dt)/(A·C0).
(§5) where, dQ/dt is the rate of drug transport, C0 is the initial concentration of the compound in the donor chamber and A represents the surface area of the cell monolayer. The efflux ratio P was determined by calculating the ratio of Papp in the secretory (BA) direction divided by that in the absorptive (AB) direction, according to the following equation: P=PappBA/PappAB

[2] = system: BCRP; test: as above; details: human, 25 μM morroniside
Description: as §1, §2, §3, §4, §5

[3] = system: MRP2; test: as above; details: human, 25 μM morroniside
Description: as §1, §2, §3, §4, §5

[4] = system: MRP3; test: as above; details: human, 25 μM morroniside
Description: as §1, §2, §3, §4, §5

[5] = system: OATs; test: as above; details: human, Caco-2, pH 7.4, with cimetidine 50 μM, with 50 μM cimetidine (OATs); read-out: P (efflux ratio PappBA/PappAB)
Description: as §1, §2, §3, §4, §5

[6] = system: P-gp; test: as above; details: human, Caco-2, pH 7.4, with verapamil 100 μM, 25 μM morroniside; with verapamil 100 μM (P-gp inhibitor)
Description: as §1, §2, §3, §4, §5

[7] = as above; details: human; for efflux ratio at 180 min, 25 μM: read-out: Efflux ratio P
Description: as §1, §2, §3, §4, §5

[8] = 25 μM morroniside, with verapamil 100 μM
[9] = after 0.63 mg/mL CO (containing 25 μM morroniside) was added
[10] = with 50 μM sodium vanadate (Na+/K+ pump)

COC(=O)C1=CO[C@@H](O[C@@H]2O[C@H](CO)[C@@H](O)[C@H](O)[C@H]2O)[C@@H]2[C@H](C)O[C@@H](O)C[C@H]12 [morroniside, Morroniside]
PappAB (mean) ([1]; 25 μM morroniside, Control): 1.9 ×10⁻⁶ cm/s | PappAB (mean) ([1]; 25 μM morroniside, with apigenin 25 μM): 6.12 ×10⁻⁶ cm/s | PappAB (mean) [1, 8]: 1.84 ×10⁻⁶ cm/s | PappBA (mean) ([1]; 25 μM morroniside, Control): 3.06e-06 cm/s | PappBA (mean) ([1]; 25 μM morroniside, with benzbromarone 50 μM): 3.04e-06 cm/s | PappBA (mean) [1, 8]: 2.93e-06 cm/s | change of PappAB vs control ([1]; 25 μM morroniside, after addition of apigenin (25 μM), p < 0.05): increased significantly | decrease in the efflux ratio ([1]; 25 μM morroniside, after addition of apigenin (25 μM), vs control): 72.05% | PappAB (mean) ([1]; morroniside given as CO 0.63 mg/mL (containing 25 μM morroniside), in 1e-6 cm/s): 4.284 | PappBA (mean) ([1]; morroniside given as CO 0.63 mg/mL (containing 25 μM morroniside)): 2.11e-06 cm/s | PappAB ([1]; Control (no inhibitor), influx transporter experiment): 1.90±0.5 ×10^-6cm/s | change of PappAB vs control [1, 9]: increased significantly | change of PappBA vs control [1, 9]: not significantly different | change of PappAB vs control ([1]; after MK 571 was added): increased | change of PappBA vs control ([1]; after MK 571 was added): no effect | change of AP to BL flux (PappAB) vs control ([1]; after indomethacin was added, p < 0.001): significant increase | change of PappAB and PappBA vs control ([1]; before and after addition of verapamil): did not change significantly | change of PappAB or PappBA vs control ([1]; cotreatment with 200 μM benzbromarone): did not alter | BCRP substrate status ([1]; from effect of apigenin (25 μM, BCRP inhibitor)): substrate of BCRP | MRP2 substrate status ([1]; from effect of indomethacin (MRP2 inhibitor) on AP to BL flux): substrate of MRP2 | P-gp involvement in transport ([1]; from effect of verapamil (P-gp inhibitor)): might not be involved | change of morroniside transport vs control ([1]; with 50 μM cimetidine): did not significantly increase or decrease | PappAB ([1]; with 50 μM cimetidine (OATs)): 1.82±0.5 ×10^-6cm/s | PappBA ([1]; with 50 μM cimetidine (OATs)): 3.1±0.7 ×10^-6cm/s | change of morroniside transport vs control ([1]; with 50 μM sodium vanadate): did not significantly increase or decrease | PappAB [1, 10]: 1.89±0.4 ×10^-6cm/s | PappBA [1, 10]: 3.11±0.7 ×10^-6cm/s | efflux ratio at 180 min, 25 μM ([2]; Caco-2, pH 7.4, with apigenin 25 μM, with apigenin 25 μM (BCRP inhibitor), read-out: Efflux ratio P): 0.45 | Papp B→A at 180 min, 25 μM ([2]; Caco-2, pH 7.4, BL to AP, with apigenin 25 μM, read-out: PappBA (mean)): 2.78 ×10⁻⁶ cm/s | efflux ratio at 180 min, 25 μM ([3]; Caco-2, pH 7.4, with indomethacin 200 μM, with indomethacin 200 μM (MRP2 inhibitor), read-out: Efflux ratio P): 0.26 | Papp A→B at 180 min, 25 μM ([3]; Caco-2, pH 7.4, AP to BL, with indomethacin 200 μM, read-out: PappAB (mean)): 12.8 ×10⁻⁶ cm/s | Papp B→A at 180 min, 25 μM ([3]; Caco-2, pH 7.4, BL to AP, with indomethacin 200 μM, read-out: PappBA (mean)): 3.3 ×10⁻⁶ cm/s | efflux ratio at 180 min, 25 μM ([4]; Caco-2, pH 7.4, with benzbromarone 50 μM, with benzbromarone 50 μM (MRP3 inhibitor), read-out: Efflux ratio P): 1.72 | Papp A→B at 180 min, 25 μM ([4]; Caco-2, pH 7.4, AP to BL, with benzbromarone 50 μM, read-out: PappAB (mean)): 1.77 ×10⁻⁶ cm/s | efflux ratio at 180 min [5]: 1.7 | efflux ratio at 180 min, 25 μM [6]: 1.59 | efflux ratio at 180 min, 25 μM ([7]; Caco-2, pH 7.4, 25 μM morroniside, Control (no inhibitor)): 1.61 | efflux ratio at 180 min ([7]; Caco-2, pH 7.4, Control (no inhibitor), influx transporter experiment, read-out: P (efflux ratio PappBA/PappAB)): 1.6 | efflux ratio at 180 min, 25 μM ([7]; Caco-2, pH 7.4, morroniside given as CO 0.63 mg/mL (containing 25 μM morroniside)): 0.49 | Papp B→A at 180 min ([7]; Caco-2, Control (no inhibitor), influx transporter experiment, pH 7.4, 37 °C): 3.06 ± 0.6 ×10⁻⁶ cm/s
